Measurements from PubChem BioAssay (NCI).
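Exposure lasted 48 hours, with cells grown in 96-well plates and compounds tested at five concentrations. GI50 = concentration required for 50% inhibition of growth. Definition used: TGI = concentration required for complete inhibition of growth.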

Assays:
Assay in all cases: NCI-60 cell line screen, 48 h
[1] = tested on: SK-MEL-28 melanoma
[2] = tested on: NCI-H226 lung
[3] = tested on: RXF 393 renal
[4] = tested on: OVCAR-5 ovarian
[5] = tested on: HOP-92 NSCLC
[6] = tested on: MALME-3M melanoma
[7] = tested on: MOLT-4 leukemia
[8] = tested on: OVCAR-3 ovarian
[9] = tested on: A498 renal
[10] = tested on: UACC-257 melanoma
[11] = tested on: HT29 colon
[12] = tested on: ACHN renal
[13] = tested on: HCT-15 colon
[14] = tested on: SNB-19 CNS
[15] = tested on: NCI-H460 lung
[16] = tested on: MDA-MB-435
[17] = tested on: KM12 colon
[18] = tested on: SF-539 CNS
[19] = tested on: EKVX NSCLC
[20] = tested on: COLO 205 colon
[21] = tested on: HS 578T breast
[22] = tested on: A549 NSCLC
[23] = tested on: T-47D breast
[24] = tested on: PC-3 prostate
[25] = tested on: DU-145 prostate
[26] = tested on: LOX IMVI melanoma
[27] = tested on: SW-620 colon
[28] = tested on: TK-10 renal
[29] = tested on: MCF7 breast
[30] = tested on: OVCAR-4 ovarian
[31] = tested on: SF-268 CNS
[32] = tested on: 786-0 renal
[33] = tested on: OVCAR-8 ovarian
[34] = tested on: BT-549 breast
[35] = tested on: RPMI-8226 leukemia
[36] = tested on: HCT-116 colon
[37] = tested on: K-562 leukemia
[38] = tested on: IGROV1 ovarian
[39] = tested on: HL-60(TB) leukemia
[40] = tested on: U251 CNS
[41] = tested on: UACC-62 melanoma
[42] = tested on: SK-OV-3 ovarian
[43] = tested on: NCI-H522 lung
[44] = tested on: NCI/ADR-RES ovarian
[45] = tested on: MDA-MB-231 breast
[46] = tested on: NCI-H23 lung
[47] = tested on: SR leukemia
[48] = tested on: M14 melanoma
[49] = tested on: SK-MEL-5 melanoma
[50] = tested on: SK-MEL-2 melanoma
[51] = tested on: SNB-75 CNS
[52] = tested on: SF-295 CNS
[53] = tested on: CCRF-CEM leukemia
[54] = tested on: SN12C renal
[55] = tested on: UO-31 renal
[56] = tested on: HCC-2998 colon

O=c1c2ccccc2oc2ccc(OCCCCCCN3CCCCCC3)cc12
GI50 [1]: 2.01 µM
TGI [1]: 4.58 µM
GI50 [2]: 4.29 µM
TGI [2]: 20.2 µM
GI50 [3]: 2.17 µM
TGI [3]: 5.6 µM
GI50 [4]: 3.24 µM
TGI [4]: 13.5 µM
GI50 [5]: 4.29 µM
TGI [5]: 20.7 µM
GI50 [6]: 1.93 µM
TGI [6]: 3.68 µM
GI50 [7]: 2.38 µM
TGI [7]: 6.29 µM
GI50 [8]: 4.09 µM
TGI [8]: 16.1 µM
GI50 [9]: 2.49 µM
TGI [9]: 6.49 µM
GI50 [10]: 2.52 µM
TGI [10]: 5.28 µM
GI50 [11]: 1.91 µM
TGI [11]: 6.57 µM
GI50 [12]: 3.68 µM
TGI [12]: 13.2 µM
GI50 [13]: 2.09 µM
TGI [13]: 11.1 µM
GI50 [14]: 4.12 µM
TGI [14]: 14.4 µM
GI50 [15]: 3.46 µM
TGI [15]: 11.3 µM
GI50 [16]: 2.53 µM
TGI [16]: 8.75 µM
GI50 [17]: 3.2 µM
TGI [17]: 11.5 µM
GI50 [18]: 1.76 µM
TGI [18]: 3.4 µM
GI50 [19]: 2.88 µM
TGI [19]: 13.9 µM
GI50 [20]: 1.93 µM
TGI [20]: 4.05 µM
GI50 [21]: 7.5 µM
TGI [21]: 36.7 µM
GI50 [22]: 3.51 µM
TGI [22]: 11.5 µM
GI50 [23]: 2.26 µM
TGI [23]: 8.52 µM
GI50 [24]: 3.17 µM
TGI [24]: 13.2 µM
GI50 [25]: 5.89 µM
TGI [25]: 19 µM
GI50 [26]: 1.85 µM
TGI [26]: 3.54 µM
GI50 [27]: 3.11 µM
TGI [27]: 11 µM
GI50 [28]: 3.94 µM
TGI [28]: 17.3 µM
GI50 [29]: 1.91 µM
TGI [29]: 5.53 µM
GI50 [30]: 3.03 µM
TGI [30]: 16.7 µM
GI50 [31]: 4.35 µM
TGI [31]: 20 µM
GI50 [32]: 1.9 µM
TGI [32]: 4.35 µM
GI50 [33]: 4.66 µM
TGI [33]: 17.9 µM
GI50 [34]: 1.7 µM
TGI [34]: 5.3 µM
GI50 [35]: 2.24 µM
TGI [35]: 5.78 µM
GI50 [36]: 2.13 µM
TGI [36]: 5.16 µM
GI50 [37]: 1.96 µM
TGI [37]: 4.6 µM
GI50 [38]: 4.29 µM
TGI [38]: 17.5 µM
GI50 [39]: 1.84 µM
TGI [39]: 3.97 µM
GI50 [40]: 3.28 µM
TGI [40]: 11.5 µM
GI50 [41]: 2.29 µM
TGI [41]: 4.78 µM
GI50 [42]: 2.77 µM
TGI [42]: 8.29 µM
GI50 [43]: 2.82 µM
TGI [43]: 11.5 µM
GI50 [44]: 3.73 µM
TGI [44]: 24.6 µM
GI50 [45]: 4.19 µM
TGI [45]: 13 µM
GI50 [46]: 3.1 µM
TGI [46]: 11.7 µM
GI50 [47]: 1.95 µM
TGI [47]: 4.93 µM
GI50 [48]: 1.88 µM
TGI [48]: 3.69 µM
GI50 [49]: 1.68 µM
TGI [49]: 3.04 µM
GI50 [50]: 3.05 µM
TGI [50]: 9.75 µM
GI50 [51]: 3.11 µM
TGI [51]: 14.1 µM
GI50 [52]: 2.16 µM
TGI [52]: 5.87 µM
GI50 [53]: 3.17 µM
TGI [53]: 12 µM
GI50 [54]: 4.07 µM
TGI [54]: 16.2 µM
GI50 [55]: 2.05 µM
TGI [55]: 6.32 µM
GI50 [56]: 2.97 µM
TGI [56]: 11.6 µM
